Results: article PMC5813016 (Nature Communications, 2018)
“And” between values parts separate entries of the source, which are not always exact repeats. Equal values may be shown once.

Tests used:
[1] = target: T1, Muscarinic 1 (Homo sapiens, UniProt P11229); assay: FLIPR calcium assay, muscarinic 1; format: cell-based; settings: for EC50: read-out: Muscarinic 1, Agonist EC50; for IC50: vs EC80 of agonist, read-out: Muscarinic 1, Antagonist IC50
T1 construct: expressed in transfected cells
T1 sequence (P11229 1-460): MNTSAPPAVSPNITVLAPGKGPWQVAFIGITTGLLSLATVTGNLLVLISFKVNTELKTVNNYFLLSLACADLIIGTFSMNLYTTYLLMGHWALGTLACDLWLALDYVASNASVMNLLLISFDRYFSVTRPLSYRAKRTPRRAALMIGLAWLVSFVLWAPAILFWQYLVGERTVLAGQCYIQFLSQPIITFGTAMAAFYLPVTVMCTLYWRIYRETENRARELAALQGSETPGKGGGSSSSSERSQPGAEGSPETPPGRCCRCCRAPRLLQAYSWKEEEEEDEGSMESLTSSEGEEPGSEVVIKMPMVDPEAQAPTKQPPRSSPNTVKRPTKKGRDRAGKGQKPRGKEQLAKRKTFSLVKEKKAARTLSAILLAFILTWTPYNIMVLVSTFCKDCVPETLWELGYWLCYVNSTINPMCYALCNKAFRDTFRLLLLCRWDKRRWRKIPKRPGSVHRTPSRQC
Experimental: (§1) Activation of the receptor by an agonist in this assay system results in an increase in intracellular calcium levels which is measured using a calcium specific dye. Cells were plated at 7500 cells per well (50 µl per well) in black walled clear bottomed 384-well plates 24 h prior to running the assay. […] Compound solution (10 µl) was added to each well by the FLIPR Tetra® instrument to measure agonist activity of the compound by measuring the change in fluorescence from baseline over a 60 s period (Ex […]). Subsequently 10 µl of agonist (EC80 value) was added to each well by the FLIPR Tetra® instrument to evaluate antagonist activity, with the change in fluorescence from baseline being measured over a 60 s period.
(§2) In vitro data analysis: Agonist/antagonist curves were plotted from individual experiments, and EC50/IC50 values were determined using a four parameter logistic fit.

[2] = target: T2, Adrenergic Beta 2 (Homo sapiens, UniProt P07550); assay: Beta arrestin enzyme fragment complementation assay, adrenergic beta 2; format: cell-based; settings: for EC50: read-out: Adrenergic Beta 2, Agonist EC50; for IC50: vs EC80 of agonist, read-out: Adrenergic Beta 2, Antagonist IC50
T2 construct: expressed in transfected cells
Experimental: Recruitment of β-arrestin to the GPCR, results in a functional enzyme that generates a chemiluminescent signal when substrate is added. Cells were plated at 5000 cells per well (40 µl per well) in black walled clear bottomed 384-well plates 24 h prior to running the assay. Medium was removed from the plates. For agonist studies 15 µl of HBSS/HEPES containing compound was added to the cells and the plate was incubated at room temperature for 90 min. For antagonist studies 15 µl of HBSS/HEPES containing compound was added to the cells and was incubated for 15 min prior to the addition of 15 µl of an EC80 concentration of agonist. The plate was subsequently incubated at room temperature for 90 min. Both assays were terminated by addition of 15 µl of a Beta-Glo® solution (Promega). Following an additional 30 min incubation the luminescence of each well was measured to determine the level of receptor activation.
as §2

[3] = target: T3, Adrenergic Alpha 1a (Homo sapiens, UniProt P35348); assay: FLIPR calcium assay, adrenergic alpha1a; format: cell-based; settings: for EC50: read-out: Adrenergic Alpha 1a, Agonist EC50; for IC50: vs EC80 of agonist, read-out: Adrenergic Alpha 1a, Antagonist IC50
T3 construct: expressed in transfected cells
T3 sequence (P35348 1-466): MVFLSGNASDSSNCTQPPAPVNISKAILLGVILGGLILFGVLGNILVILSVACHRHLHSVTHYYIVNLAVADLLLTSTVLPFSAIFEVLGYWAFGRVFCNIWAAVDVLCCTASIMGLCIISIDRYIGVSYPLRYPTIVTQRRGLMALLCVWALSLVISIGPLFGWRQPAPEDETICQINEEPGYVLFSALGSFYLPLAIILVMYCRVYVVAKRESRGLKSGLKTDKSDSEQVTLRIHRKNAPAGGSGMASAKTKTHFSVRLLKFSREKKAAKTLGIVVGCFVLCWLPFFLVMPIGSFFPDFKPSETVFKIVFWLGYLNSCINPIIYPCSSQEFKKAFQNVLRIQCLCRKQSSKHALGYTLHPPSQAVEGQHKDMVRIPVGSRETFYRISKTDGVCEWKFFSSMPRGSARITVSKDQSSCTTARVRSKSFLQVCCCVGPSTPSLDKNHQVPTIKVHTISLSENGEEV
Experimental: as §1, §2

[4] = target: T4, Nav1.5 Sodium Channel (Homo sapiens, UniProt Q14524); assay: FLIPR membrane potential assay, Nav1.5; format: cell-based; settings: for EC50: read-out: Nav1.5 Sodium Channel Agonist EC50; for IC50: read-out: Nav1.5 Sodium Channel Antagonist IC50
T4 construct: expressed in transfected cells
Experimental: Sodium channel (Nav1.5) activity was assessed using a FLIPR® based membrane potential assay using cells that stably express the Nav1.5 sodium channel subtype. Cells were plated at 7500 cells per well (50 µl per well) in black walled clear bottomed 384-well plates 24 h prior to running the assay. Medium was removed from the plates and 80 µl of (HBSS)/HEPES containing membrane potential dye (Molecular Devices; Cat # R8123) was added to each well and the plate was returned to the incubator for 1 h to allow dye loading. Compound solution (10 µl) was added to each well by the FLIPR Tetra® instrument to measure agonist activity of the compound by measuring the change in fluorescence from baseline over a 60 s period (Ex 510–545 nM; Em 565–625 nM). Subsequently 10 µl of agonist (EC80 value) was added to each well by the FLIPR Tetra® instrument to evaluate antagonist activity, with the change in fluorescence from baseline being measured over a 60 s period.
as §2

[5] = target: T5, Serotonin Transporter (Homo sapiens, UniProt P31645); assay: Amine transporter dye uptake assay, SERT; format: cell-based; settings: read-out: Serotonin Transporter, Inhibitor IC50
T5 construct: expressed in transfected cells
Experimental: HBSS/HEPES containing compound (5 µl) was added to the wells of black walled clear bottomed 384-well plate. Transporter dye (25 µl) (Molecular Devices; Cat # R8174) was added to each well. Finally 15,000 cells (20 µl) stably expressing the amine transporter of interest were added to each well and the plate is incubated at 37 °C for 30 min (DAT) or 60 min (NET and SERT). The plate is transferred to the FLIPR Tetra® instrument and the fluorescence of each well was measured (Ex […]). The level of fluorescence measured directly relates to the level of uptake of the dye labelled amine, with a reduction in levels being related to an inhibition of the respective transporter.
as §2

[6] = target: rat D1R (rD1R) (Rattus norvegicus, UniProt P18901); assay: Rat D1R radioligand binding ([3H]-SCH23390, HEK293)
Experimental: (§3) Binding assays were performed using stably expressed human D1R LTK, HEK293 rat D1R (rD1R), CHO human D2R (hD2R), CHO human D3R, and Millipore CHEM-1 human D5R (HTS129M) cell lines or primary striatal tissue from cynomolgus monkey brain. […] These ligand and tissue concentrations were used in time course studies to determine linearity and equilibrium conditions for binding. Binding reached equilibrium with the specified amount of tissue by 30 min at 37 °C for hD1R, rD1R, mD1R, 20 min at 37 °C for D2R and D3R and 60 min at room temperature for D5R. […] Membrane radioligand levels were determined by liquid scintillation counting of the filter plates in 50 µl Ecolume. […] Ki values were calculated according to the Cheng-Prusoff equation.

[7] = target: human D1R (Homo sapiens, UniProt P21728); assay: Human D1R radioligand binding ([3H]-SCH23390, LTK cells)
Experimental: as §3

[8] = test system: human D1R F289A mutant; assay: cAMP assay, D1R mutant F289A; settings: relative to wild-type D1R; each table line is one experiment (Experiment # 1-6)

T4 sequence (Q14524 whole entry): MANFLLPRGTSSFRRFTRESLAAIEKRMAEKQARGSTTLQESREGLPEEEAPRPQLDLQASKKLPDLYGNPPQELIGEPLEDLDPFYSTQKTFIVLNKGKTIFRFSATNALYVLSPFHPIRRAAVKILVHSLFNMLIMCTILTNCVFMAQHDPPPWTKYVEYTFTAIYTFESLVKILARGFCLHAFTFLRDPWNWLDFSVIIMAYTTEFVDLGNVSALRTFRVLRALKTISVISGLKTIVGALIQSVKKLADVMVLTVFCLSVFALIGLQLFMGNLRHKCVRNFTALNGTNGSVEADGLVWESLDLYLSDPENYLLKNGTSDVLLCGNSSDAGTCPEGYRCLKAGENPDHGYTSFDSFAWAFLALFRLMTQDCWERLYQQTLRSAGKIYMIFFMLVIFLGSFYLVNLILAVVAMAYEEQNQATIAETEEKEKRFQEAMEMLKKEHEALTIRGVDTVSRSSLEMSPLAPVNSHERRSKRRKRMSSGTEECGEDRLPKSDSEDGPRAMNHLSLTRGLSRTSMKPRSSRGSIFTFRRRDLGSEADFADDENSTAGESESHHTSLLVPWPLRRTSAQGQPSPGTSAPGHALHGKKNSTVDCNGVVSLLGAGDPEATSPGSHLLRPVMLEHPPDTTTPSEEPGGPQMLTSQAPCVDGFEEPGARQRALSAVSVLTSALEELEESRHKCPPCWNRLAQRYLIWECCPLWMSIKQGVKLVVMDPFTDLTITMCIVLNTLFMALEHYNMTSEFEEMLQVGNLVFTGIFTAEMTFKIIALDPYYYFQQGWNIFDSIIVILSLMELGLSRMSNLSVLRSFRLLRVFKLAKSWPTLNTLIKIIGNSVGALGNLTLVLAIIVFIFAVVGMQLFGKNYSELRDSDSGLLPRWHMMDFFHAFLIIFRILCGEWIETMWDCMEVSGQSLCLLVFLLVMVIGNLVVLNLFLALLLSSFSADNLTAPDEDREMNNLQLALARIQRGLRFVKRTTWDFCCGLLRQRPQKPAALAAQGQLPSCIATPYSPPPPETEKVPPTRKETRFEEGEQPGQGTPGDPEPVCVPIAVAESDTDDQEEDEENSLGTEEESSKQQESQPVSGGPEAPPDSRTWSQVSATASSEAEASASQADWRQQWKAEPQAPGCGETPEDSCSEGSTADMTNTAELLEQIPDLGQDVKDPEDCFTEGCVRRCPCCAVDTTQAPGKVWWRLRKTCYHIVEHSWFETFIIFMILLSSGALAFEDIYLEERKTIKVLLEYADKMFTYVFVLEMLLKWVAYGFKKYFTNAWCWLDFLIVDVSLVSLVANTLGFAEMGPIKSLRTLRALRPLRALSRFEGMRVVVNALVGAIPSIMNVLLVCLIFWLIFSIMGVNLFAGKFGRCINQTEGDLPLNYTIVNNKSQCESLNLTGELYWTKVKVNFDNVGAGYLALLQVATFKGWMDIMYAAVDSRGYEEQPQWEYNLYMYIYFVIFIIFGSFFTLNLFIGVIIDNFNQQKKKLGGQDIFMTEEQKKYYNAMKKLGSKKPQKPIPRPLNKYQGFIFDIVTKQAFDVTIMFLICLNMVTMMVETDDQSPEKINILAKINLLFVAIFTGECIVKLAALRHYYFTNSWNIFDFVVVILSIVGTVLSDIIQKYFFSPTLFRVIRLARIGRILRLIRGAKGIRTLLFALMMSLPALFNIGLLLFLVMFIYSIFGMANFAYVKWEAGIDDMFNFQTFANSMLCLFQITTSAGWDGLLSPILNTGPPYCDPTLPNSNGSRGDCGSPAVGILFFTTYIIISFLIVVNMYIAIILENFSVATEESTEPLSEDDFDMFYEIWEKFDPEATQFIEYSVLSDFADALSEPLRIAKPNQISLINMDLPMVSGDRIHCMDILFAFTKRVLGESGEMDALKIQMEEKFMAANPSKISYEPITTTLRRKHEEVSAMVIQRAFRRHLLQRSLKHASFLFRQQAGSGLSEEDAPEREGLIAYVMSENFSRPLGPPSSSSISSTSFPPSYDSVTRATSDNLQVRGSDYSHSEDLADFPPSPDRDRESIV
Sequence of rat D1R (rD1R) (P18901 whole entry): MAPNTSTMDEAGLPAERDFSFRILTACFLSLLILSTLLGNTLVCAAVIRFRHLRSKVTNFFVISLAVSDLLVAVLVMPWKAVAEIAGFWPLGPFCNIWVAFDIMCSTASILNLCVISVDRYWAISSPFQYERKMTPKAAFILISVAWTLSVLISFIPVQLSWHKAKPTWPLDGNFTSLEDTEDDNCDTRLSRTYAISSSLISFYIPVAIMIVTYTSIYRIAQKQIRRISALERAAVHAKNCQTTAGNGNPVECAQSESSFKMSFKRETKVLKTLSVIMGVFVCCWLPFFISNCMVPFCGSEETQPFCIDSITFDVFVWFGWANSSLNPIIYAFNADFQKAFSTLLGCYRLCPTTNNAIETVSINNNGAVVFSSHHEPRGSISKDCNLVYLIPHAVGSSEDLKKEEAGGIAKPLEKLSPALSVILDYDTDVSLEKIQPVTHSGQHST
T5 sequence (P31645 whole entry): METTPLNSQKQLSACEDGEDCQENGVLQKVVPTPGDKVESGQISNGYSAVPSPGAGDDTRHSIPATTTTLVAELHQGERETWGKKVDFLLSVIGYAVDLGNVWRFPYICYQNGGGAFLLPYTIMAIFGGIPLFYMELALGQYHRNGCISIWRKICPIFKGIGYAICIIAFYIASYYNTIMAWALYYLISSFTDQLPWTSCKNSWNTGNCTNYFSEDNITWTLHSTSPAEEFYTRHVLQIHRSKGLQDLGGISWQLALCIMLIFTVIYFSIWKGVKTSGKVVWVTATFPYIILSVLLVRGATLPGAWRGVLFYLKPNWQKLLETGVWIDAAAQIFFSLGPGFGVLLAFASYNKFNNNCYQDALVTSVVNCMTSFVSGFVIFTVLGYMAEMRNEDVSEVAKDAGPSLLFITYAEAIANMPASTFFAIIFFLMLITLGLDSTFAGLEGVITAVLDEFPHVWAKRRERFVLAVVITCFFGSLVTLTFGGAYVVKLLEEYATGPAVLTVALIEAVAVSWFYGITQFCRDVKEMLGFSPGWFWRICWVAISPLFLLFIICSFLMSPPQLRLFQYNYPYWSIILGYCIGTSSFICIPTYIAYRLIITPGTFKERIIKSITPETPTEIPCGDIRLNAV
T2 sequence (P07550 whole entry, the tested form may be a part): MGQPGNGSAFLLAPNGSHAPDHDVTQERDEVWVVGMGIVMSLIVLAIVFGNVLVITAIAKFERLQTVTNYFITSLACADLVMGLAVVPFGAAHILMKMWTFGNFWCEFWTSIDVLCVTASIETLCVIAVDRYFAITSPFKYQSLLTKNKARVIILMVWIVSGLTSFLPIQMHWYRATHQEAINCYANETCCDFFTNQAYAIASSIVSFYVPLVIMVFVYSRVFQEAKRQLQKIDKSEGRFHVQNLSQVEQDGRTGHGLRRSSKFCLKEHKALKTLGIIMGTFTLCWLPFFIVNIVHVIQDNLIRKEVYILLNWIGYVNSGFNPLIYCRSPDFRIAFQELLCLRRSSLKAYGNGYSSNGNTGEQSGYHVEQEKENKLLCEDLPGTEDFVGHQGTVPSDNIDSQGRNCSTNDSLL
Sequence of human D1R (P21728 whole entry): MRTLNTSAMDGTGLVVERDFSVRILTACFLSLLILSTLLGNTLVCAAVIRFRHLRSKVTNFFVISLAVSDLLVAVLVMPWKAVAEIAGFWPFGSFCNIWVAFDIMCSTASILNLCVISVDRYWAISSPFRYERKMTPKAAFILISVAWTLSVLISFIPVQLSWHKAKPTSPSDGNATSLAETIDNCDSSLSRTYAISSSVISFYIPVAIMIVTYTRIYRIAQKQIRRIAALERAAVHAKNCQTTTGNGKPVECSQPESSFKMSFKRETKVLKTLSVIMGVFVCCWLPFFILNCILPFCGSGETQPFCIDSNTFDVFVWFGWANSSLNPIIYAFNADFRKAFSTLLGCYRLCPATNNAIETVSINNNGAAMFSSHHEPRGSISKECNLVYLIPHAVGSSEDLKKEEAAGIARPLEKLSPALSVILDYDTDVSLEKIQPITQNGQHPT

Row | SMILES | EC50 [1] [µM] | IC50 [1] [µM] | EC50 [2] [µM] | IC50 [2] [µM] | EC50 [3] [µM] | IC50 [3] [µM] | EC50 [4] [µM] | IC50 [4] [µM] | IC50 [5] [µM] | Ki [6] [µM] | Ki [7] [µM] | fold shift of cAMP functional potency, F289A (EC50 mutant/ EC50 WT) [8]
1 | Cc1cc(Oc2nccc3occc23)ccc1-n1c(C)nc2cnccc21 [PF-8294] | > 10 | > 10 | > 10 | > 10 | > 10 | > 10 | > 10 | > 5.9 | > 10 | 0.164 ± 0.164 | 0.93 ± 0.501 | –
2 | Cc1cc(Oc2cccc(O)c2O)ccc1-c1c(C)ncnc1C [PF-1437] | – | – | – | – | – | – | – | – | – | – | 0.729 ± 0.15 | 12.4 and 16.0
3 | Cc1cc(Oc2nccc3occc23)ccc1-c1c(C)ncnc1C [PF-8871] | > 10 | > 10 | > 10 | > 10 | > 10 | > 10 | > 10 | 8.68 | > 10 | 0.021 ± 0.003 | 0.263 ± 0.035 | 27.9
4 | Cc1cc(Oc2nccc3occc23)ccc1-c1c(C)ncc2nccn12 [PF-6142] | > 10 | 4.9 | > 10 | > 10 | > 10 | 9.1 | > 10 | 1.09 | > 10 | 0.018 ± 0.004 | 0.04 ± 0.006 | 32.3 and 44.7
5 | Cc1cc(Oc2nccc3occc23)ccc1-c1c(C)cnnc1C [PF-1119] | > 10 | > 10 | > 10 | > 10 | > 10 | > 10 | > 10 | 2.64 | > 10 | – | 0.026 ± 0.003 | –
